From US8183371B2, “Pyrazines as delta opioid receptor modulators” (Janssen Pharmaceutica NV, priority 2009, dated 2012)
Where two headings read alike, the source gives them in different places.

Assays:
[1] = target: T1, delta opioid receptor (Rattus norvegicus, UniProt P33533); assay: Rat brain delta opioid receptor binding assay
T1 construct: from tissue; host or cells: forebrain of male Wistar rats
Procedure: Procedure: Male, Wistar rats (150-250 g, VAF, Charles River, Kingston, N.Y.) were killed by CO2, and their brains were removed and placed immediately in ice cold Tris HCl buffer (50 mM, pH 7.4). The forebrains were separated from the remainder of the brain by a coronal transection, beginning dorsally at the colliculi and passing ventrally through the midbrain-pontine junction. After dissection, the forebrains were homogenized in Tris buffer in a Teflon®-glass homogenizer. The homogenate was diluted to a concentration of 1 g of forebrain tissue per 80 mL Tris and centrifuged at 39,000×g for 10 min. The pellet was resuspended in the same volume of Tris buffer containing 5 mM MgCl2 with several brief pulses from a Polytron homogenizer. This particulate preparation was used for the delta opioid binding assays. Following incubation with the delta selective peptide ligand ˜4 nM [^3H]DPDPE or 0.25 nM [^3H]naltrindole at 25° C. for 2.5 h in a 96-well plate with total volume of 1 mL, the plate contents were filtered through Wallac filtermat B sheets on a Tomtec 96-well harvester. The filters were rinsed three times with 2 mL of 10 mM HEPES (pH 7.4), and dried in a 650 W microwave oven for 1.75 min twice. To each sample area 2×50 μL of Betaplate Scint scintillation fluid (LKB) was added and the radioactivity was quantified on a LKB (Wallac) 1205 BetaPlate liquid scintillation counter.
Analysis: The data from the scintillation counter were used to calculate either the % inhibition compared to control binding (when only a single concentration of test compound was evaluated) or a Ki value (when a range of concentrations was tested). Percent inhibition was calculated as: [(total dpm−test compound dpm)/(total dpm−nonspecific dpm)]*100. Kd and Ki values were calculated using GraphPad PRISM data analysis program.

[2] = target: T2, δ-opioid receptor (Mus musculus, UniProt P32300); assay: [35S]GTPγS binding assay in NG108-15 cell membranes (delta opioid functional assay); assay type: biochemical; conditions: for GTPγS δ-RelEfficacy @200 nM: 200 nM compound, relative to calculated max of SNC80 dose response
T2 construct: NG108-15 cell membranes were purchased from Applied Cell Sciences (Rockville, Md.); host or cells: NG108-15 cell membranes (purchased)
Procedure: Methods: NG108-15 cell membranes were purchased from Applied Cell Sciences (Rockville, Md.). 5 mg/mL of membrane protein was suspended in 10 mM TRIS-HCl pH 7.2, 2 mM EDTA, 10% sucrose. Membranes were maintained at 4-8° C. A 1 mL volume of membranes was added into 10 mL cold binding assay buffer. The assay buffer contained 50 mM Tris, pH 7.6, 5 mM MgCl2, 100 mM NaCl, 1 mM DTT and 1 mM EGTA. The membrane suspension was homogenized twice with a Polytron, and centrifuged at 3000 rpm for 10 min. The supernatant was then centrifuged at 18,000 rpm for 20 min. Ten mL of assay buffer was added into the pellet containing tube. The pellet and buffer were mixed with a Polytron.
Incubation procedure: The pellet membranes (75 μg/mL) were preincubated with SPA beads (10 mg/mL) at 25° C. for 45 min in the assay buffer. The SPA beads (5 mg/mL) coupled with membranes (37.5 μg/mL) were then incubated with 0.1 nM [^35S]GTPγS in the same Tris buffer containing 100 μM GDP in total volume of 200 μL. 200 nM of receptor agonists was used to stimulate [^35S]-GTPγS binding. The basal binding was tested in the absence of agonists and non-specific binding was tested in the presence of 10 μM unlabeled GTPγS.
Data % of Basal=(stimulated−non specific)*100/(basal−non specific). Relative Efficacy of a compound at 200 nM=(% of Basal of test compound at 200 nM)/(Calculated Max of SNC80 dose response. Curve in prism).

[3] = [3H]naltrindole ligand, read-out: δ-binding (Naltrindole ligand) Ki
[4] = read-out: GTPγS δ-opioid receptor EC50
[5] = rat forebrain membranes, ~4 nM [3H]DPDPE, read-out: δ-binding (DPDPE ligand) Ki

T2 sequence (P32300 whole entry): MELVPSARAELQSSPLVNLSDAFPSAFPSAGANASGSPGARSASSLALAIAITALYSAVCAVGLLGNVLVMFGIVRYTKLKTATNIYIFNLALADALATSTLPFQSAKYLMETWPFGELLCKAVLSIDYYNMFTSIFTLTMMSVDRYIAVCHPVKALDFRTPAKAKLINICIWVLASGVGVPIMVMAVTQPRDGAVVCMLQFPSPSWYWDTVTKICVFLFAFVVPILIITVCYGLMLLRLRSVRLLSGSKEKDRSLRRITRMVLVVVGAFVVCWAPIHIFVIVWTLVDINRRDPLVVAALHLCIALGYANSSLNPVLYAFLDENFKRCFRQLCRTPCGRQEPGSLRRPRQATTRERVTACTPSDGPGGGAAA
T1 sequence (P33533 whole entry): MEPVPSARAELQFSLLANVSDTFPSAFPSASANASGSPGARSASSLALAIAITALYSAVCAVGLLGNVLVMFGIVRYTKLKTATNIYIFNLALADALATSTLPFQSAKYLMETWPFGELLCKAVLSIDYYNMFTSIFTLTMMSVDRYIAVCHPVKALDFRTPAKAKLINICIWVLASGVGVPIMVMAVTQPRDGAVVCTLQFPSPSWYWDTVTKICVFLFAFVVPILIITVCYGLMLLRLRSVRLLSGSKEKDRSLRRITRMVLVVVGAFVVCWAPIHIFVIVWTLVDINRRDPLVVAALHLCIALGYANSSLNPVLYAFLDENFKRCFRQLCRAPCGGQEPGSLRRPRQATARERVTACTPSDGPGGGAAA

| SMILES | Ki [1, 3] [nM] | GTPγS δ-RelEfficacy @200 nM [2] | GTPγS δ-opioid receptor Rel Efficacy [2] | EC50 [2, 4] [nM] | Ki [1, 5] [nM] | EC50 [2] [nM] | Ki [1] [nM] |
| --- | --- | --- | --- | --- | --- | --- | --- |
| Cc1ccc(Oc2nc(-c3cncc(C#N)c3)cnc2NC[C@@H]2CCCN2)cn1 [Cpd 28] | 13.2 | 0.1492 |  |  |  |  |  |
| COc1ccc(Oc2nc(-c3cncnc3)cnc2NC[C@H](C)N)cc1 [Cpd 20] | 0.6 | 0.6890 | 1.0287 | 50.5 |  |  |  |
| COc1ccc(Cc2nc(-c3cncc(C#N)c3)cnc2NC[C@@H]2CCCN2)cc1 [Cpd 23] | 2.4 | 0.1174 |  |  |  |  |  |
| CCc1ccc(Oc2nc(-c3cncnc3)cnc2NC[C@@H]2CCCN2)cc1 [Cpd 6] |  |  | 1.1553 | 460 | 32.3 |  |  |
| COc1ccc(Cc2nc(-c3cccnc3)cnc2NC[C@@H]2CCCN2)cc1 [Cpd 16] | 15 |  | 0.3985 | 7320 |  |  |  |
| Clc1ccccc1Oc1nc(-c2cncnc2)cnc1NC[C@@H]1CCCN1 [Cpd 12, [3-(2-Chloro-phenoxy)-5-pyrimidin-5-yl-pyrazin-2-yl]-pyrrolidin-2-(S)-ylmethyl-amine] | 0.7 | 0.2356 |  |  |  |  |  |
| N#Cc1cncc(-c2cnc(NC[C@@H]3CCCN3)c(Oc3ccccc3Cl)n2)c1 [Cpd 41] |  | 0.3049 | 1.2922 | 298 |  |  |  |
| COc1ccc(Oc2nc(-c3cncc(C#N)c3)cnc2NC[C@@H]2CCCN2)cc1 [Cpd 24] | 0.2 | 0.1669 |  |  |  |  |  |
| CC(=O)Nc1cccc(Oc2nc(-c3cncnc3)cnc2NC[C@@H]2CCCN2)c1 [Cpd 13] | 4 | 0.0800 |  |  |  |  |  |
| COc1ccc(Oc2nc(-c3cncnc3)cnc2NC[C@@H]2CCCN2)c(F)c1 [Cpd 9] |  |  | 1.1022 | 281 | 1.2 |  |  |
| N#Cc1cncc(-c2cnc(NC[C@@H]3CCCN3)c(Oc3cccc(Cl)c3)n2)c1 [Cpd 42] |  | 0.7111 | 1.1894 | 84.4 |  |  |  |
| N#Cc1cncc(-c2cnc(NC[C@@H]3CCCN3)c(Oc3ccc4occc4c3)n2)c1 [Cpd 39] | 0.2 | 1.0765 | 1.0736 | 4.6 |  |  |  |
| COc1ccc(Oc2nc(-c3cncc(C#N)c3)cnc2NC[C@H](C)N)cc1 [Cpd 19] | 0.3 |  |  |  |  |  |  |
| N#Cc1cncc(-c2cnc(NC[C@@H]3CCCN3)c(Oc3ccc4[nH]ccc4c3)n2)c1 [Cpd 40] |  | 0.6606 | 1.1190 | 39.3 |  |  |  |
| c1ncc(-c2cnc(NC[C@@H]3CCCN3)c(Oc3ccc4c(c3)OCO4)n2)cn1 [Cpd 7] |  |  |  |  | 491 |  |  |
| Clc1ccc(Oc2nc(-c3cncnc3)cnc2NC[C@@H]2CCCN2)cc1 [Cpd 10] | 1.1 | 0.2150 |  |  |  |  |  |
| N#CCc1ccc(Oc2nc(-c3cncc(C#N)c3)cnc2NC[C@@H]2CCCN2)cc1 [Cpd 27] | 6.4 | 0.9179 | 1.0035 | 34.2 |  |  |  |
| COc1ccc(Oc2nc(-c3cccnc3)cnc2N2CCNCC2)cc1 [Cpd 31] | 0.3 | 0.7579 | 1.0012 | 8.1 |  |  |  |
| COc1ccc(Oc2nc(-c3cncc(C#N)c3)cnc2N[C@H]2CC[C@@H](N)CC2)cc1 [Cpd 35] |  | 0.4157 | 1.2053 |  |  | 95.2 | 0.4 |
| COc1ccc(Cc2nc(-c3cncnc3)cnc2NC[C@@H]2CCCN2)cc1 [Cpd 17, [3-(4-Methoxy-benzyl)-5-pyrimidin-5-yl-pyrazin-2-yl]-pyrrolidin-2-(S)-ylmethyl-amine] | 19.9 | 0.1065 |  |  |  |  |  |
| COc1ccc(Oc2nc(-c3cncc(C#N)c3)cnc2N[C@H]2CC[C@H](N)CC2)cc1 [Cpd 34] |  |  |  |  |  |  | 0.7 |

More lines, main results first:

| Ki [1, 3] [nM] | GTPγS δ-RelEfficacy @200 nM [2] | GTPγS δ-opioid receptor Rel Efficacy [2] | EC50 [2, 4] [nM] | Ki [1, 5] [nM] | SMILES | EC50 [2] [nM] | Ki [1] [nM] |
| --- | --- | --- | --- | --- | --- | --- | --- |
| 4.3 |  |  |  |  | c1ncc(-c2cnc(NC[C@@H]3CCCN3)c(Oc3ccc4c(c3)CCO4)n2)cn1 [Cpd 33] |  |  |
| 0.6 | 0.2481 |  |  |  | COc1ccc(Oc2nc(-c3cncc(C#N)c3)cnc2NCC2(N)CCCC2)cc1 [Cpd 21] |  |  |
| 76.4 | 0.1065 |  |  |  | N#Cc1ccc(Oc2nc(-c3cncnc3)cnc2NC[C@@H]2CCCN2)cc1 [Cpd 18] |  |  |
|  |  | 1.0984 | 349 | 2.7 | COc1ccc(Oc2nc(-c3cncnc3)cnc2NC[C@@H]2CCCN2)cc1 [Cpd 5] |  |  |
| 1.4 | 0.5598 | 0.9719 | 29.7 |  | N#Cc1cncc(-c2cnc(NC[C@@H]3CCCN3)c(Oc3ccc(OC(F)(F)F)cc3)n2)c1 [Cpd 36] |  |  |
| 0.1 | 0.5999 | 1.1345 | 111 |  | COc1ccc(Oc2nc(-c3cncc(C#N)c3)cnc2N2CCNCC2)cc1 [Cpd 30, 5-[3′-(4-Methoxy-phenoxy)-3,4,5,6-tetrahydro-2H-[1,2′]bipyrazinyl-5′-yl]-nicotinonitrile] |  |  |
| 0.2 | 0.9130 | 1.0387 | 31.3 |  | COc1ccc(Oc2nc(-c3cncc(C#N)c3)cnc2NC[C@@H]2CCCN2)cc1F [Cpd 25] |  |  |
| 0.5 | 0.3353 |  |  |  | CCc1ccc(Oc2nc(-c3cncc(C#N)c3)cnc2NC[C@@H]2CCCN2)cc1 [Cpd 37] |  |  |
| 0.4 |  |  |  |  | Oc1cccc(Oc2nc(-c3cncnc3)cnc2NC[C@@H]2CCCN2)c1 [Cpd 15, 3-{6-Pyrimidin-5-yl-3-[(pyrrolidin-2-(S)-ylmethyl)-amino]-pyrazin-2-yloxy}-phenol] |  |  |
| 411 |  |  |  |  | c1cn(-c2ccc(Oc3nc(-c4cncnc4)cnc3NC[C@@H]3CCCN3)cc2)cn1 [Cpd 14] |  |  |
| 0.3 | 0.0000 |  |  |  | N#Cc1cncc(-c2cnc(NC[C@@H]3CCCN3)c(Oc3ccc(OC(F)F)cc3)n2)c1 [Cpd 29] |  |  |
| 1.8 | 0.2102 |  |  |  | Clc1cccc(Oc2nc(-c3cncnc3)cnc2NC[C@@H]2CCCN2)c1 [Cpd 11] |  |  |
| 0.086 | 0.6472 | 1.1104 | 66.6 |  | N#Cc1cncc(-c2cnc(NC[C@@H]3CCCN3)c(Oc3cccc(O)c3)n2)c1 [Cpd 38, 5-{6-(3-Hydroxy-phenoxy)-5-[(pyrrolidin-2-(S)-ylmethyl)-amino]-pyrazin-2-yl}-nicotinonitrile] |  |  |
| 0.2 | 1.0180 | 1.0534 | 27.1 |  | COc1ccc(Oc2nc(-c3cncc(C#N)c3)cnc2NC[C@@H]2CCCN2)c(F)c1 [Cpd 26] |  |  |
| 2.9 | 0.2384 |  |  |  | COc1ccc(Oc2nc(-c3cncnc3)cnc2NCC2(N)CCCC2)cc1 [Cpd 22] |  |  |
